The target of the first test is H1047R PIK3CA enzyme (Homo sapiens, UniProt P42336, H1047R). Put plainly: ADP-Glo Biochemical PIK3CA Kinase Assay.
Chain of H1047R PIK3CA enzyme (P42336 whole entry H1047R): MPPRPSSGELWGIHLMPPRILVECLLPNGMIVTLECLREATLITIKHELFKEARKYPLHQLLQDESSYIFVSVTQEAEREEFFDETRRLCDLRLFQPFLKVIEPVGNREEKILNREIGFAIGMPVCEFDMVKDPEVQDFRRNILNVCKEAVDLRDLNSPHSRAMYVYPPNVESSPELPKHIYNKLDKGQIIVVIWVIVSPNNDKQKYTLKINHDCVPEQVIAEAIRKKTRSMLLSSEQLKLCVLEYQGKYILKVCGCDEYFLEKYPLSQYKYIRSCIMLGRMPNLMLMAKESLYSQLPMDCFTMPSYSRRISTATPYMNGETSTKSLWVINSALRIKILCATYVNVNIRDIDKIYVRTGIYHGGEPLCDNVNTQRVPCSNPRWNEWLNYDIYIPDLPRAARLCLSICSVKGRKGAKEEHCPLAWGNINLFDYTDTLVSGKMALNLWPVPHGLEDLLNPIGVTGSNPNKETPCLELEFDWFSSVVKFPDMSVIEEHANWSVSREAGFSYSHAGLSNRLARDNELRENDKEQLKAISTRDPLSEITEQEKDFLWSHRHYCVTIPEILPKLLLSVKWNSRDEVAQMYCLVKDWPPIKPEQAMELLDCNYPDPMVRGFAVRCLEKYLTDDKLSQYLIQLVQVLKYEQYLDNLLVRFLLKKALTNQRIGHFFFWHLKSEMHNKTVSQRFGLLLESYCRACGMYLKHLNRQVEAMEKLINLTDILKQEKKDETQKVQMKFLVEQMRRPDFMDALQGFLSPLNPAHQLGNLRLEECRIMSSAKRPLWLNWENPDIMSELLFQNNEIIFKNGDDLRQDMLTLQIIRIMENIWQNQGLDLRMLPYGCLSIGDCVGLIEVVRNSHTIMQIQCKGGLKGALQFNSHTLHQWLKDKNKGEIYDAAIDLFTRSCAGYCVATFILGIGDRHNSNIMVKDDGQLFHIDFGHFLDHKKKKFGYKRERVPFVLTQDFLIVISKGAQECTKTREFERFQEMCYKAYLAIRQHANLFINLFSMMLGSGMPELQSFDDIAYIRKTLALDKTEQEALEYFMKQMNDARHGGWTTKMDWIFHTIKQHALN
Chain of H1047R PIK3CA enzyme (P27986 whole entry partner): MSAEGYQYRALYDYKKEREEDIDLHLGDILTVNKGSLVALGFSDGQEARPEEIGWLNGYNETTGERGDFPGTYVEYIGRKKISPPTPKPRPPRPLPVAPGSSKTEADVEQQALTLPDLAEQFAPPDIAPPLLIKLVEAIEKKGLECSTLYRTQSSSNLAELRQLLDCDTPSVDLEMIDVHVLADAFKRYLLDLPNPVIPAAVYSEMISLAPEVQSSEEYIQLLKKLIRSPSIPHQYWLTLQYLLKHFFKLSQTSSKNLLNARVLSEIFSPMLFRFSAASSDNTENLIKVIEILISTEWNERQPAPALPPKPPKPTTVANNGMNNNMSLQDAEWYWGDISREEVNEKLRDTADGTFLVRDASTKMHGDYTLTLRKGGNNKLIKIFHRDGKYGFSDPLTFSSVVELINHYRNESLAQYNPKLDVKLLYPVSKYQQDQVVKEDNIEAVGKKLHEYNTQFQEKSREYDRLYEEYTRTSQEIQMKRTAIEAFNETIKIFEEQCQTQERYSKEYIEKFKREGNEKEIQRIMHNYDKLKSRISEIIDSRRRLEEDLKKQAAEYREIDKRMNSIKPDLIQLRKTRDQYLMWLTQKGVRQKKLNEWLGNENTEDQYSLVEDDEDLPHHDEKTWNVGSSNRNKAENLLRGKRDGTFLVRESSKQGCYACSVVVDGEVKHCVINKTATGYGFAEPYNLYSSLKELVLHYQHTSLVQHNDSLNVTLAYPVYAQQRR
Conditions: not given
(ADP-Glo turns the ADP formed in a reaction into a luminescent signal.)
Consider `O=C(NC1CS(=O)(=O)C1)c1cnc(N2CCCOc3ccccc32)c(NC(=O)c2csc3ccccc23)c1` [I-277], for which the IC50 – broadly, the midpoint of a concentration-inhibition curve – was 10 to 100 µM.

In turn, `COCCn1cc(NC(=O)c2csc3ccccc23)c(N2CCOc3ccccc32)cc1=O` [I-271] registered a half-inhibitory concentration (IC50) of 1 to 10 µM.

The compound `Cc1ccccc1Nc1ncc(-c2cnn(C)c2)cc1NC(=O)c1cc(F)cc(C(F)(F)F)c1` [I-9] yielded an IC50 of 10 to 100 µM.

In turn, `Cc1ccccc1Nc1ncc(-c2cnn(C)c2)cc1NC(=O)c1ccccc1S(C)(=O)=O` [I-128] displayed an IC50 of 10 to 100 µM.

In turn, `CNC(=O)c1cnc(Nc2ccccc2C)c(NC(=O)c2cccc(C#N)n2)c1` [I-379] gave an IC50 of 10 to 100 µM.

`Cc1ccccc1Nc1ncc(C(=O)Nc2ccn(C)n2)cc1NC(=O)c1cc(F)cc(C(F)(F)F)c1` [I-235] gave an IC50 of 0.5 to 1 µM.

The compound `CNC(=O)c1cnc(Nc2ccccc2C)c(NC(=O)c2cc3ccccc3o2)c1` [I-40] came in with an IC50 of 10 to 100 µM.

Regarding `CNC(=O)c1cnc(NC2CCCCC2)c(NC(=O)c2cc(F)cc(C(F)(F)F)c2)c1` [I-359], the IC50 lay in the range of 10 to 100 µM.

In turn, `CNC(=O)c1cnc(Nc2ccccc2C)c(NC(=O)c2cc(F)cc3cccnc23)c1` [I-319] showed an IC50 of 10 to 100 µM.

Turning to `Cc1ccc(Nc2ncc(C(=O)NCc3ccn(C)n3)cc2NC(=O)c2csc3ccccc23)cc1` [I-223], the IC50 fell in the range of 1 to 10 µM.

For the compound `CNC(=O)c1cnc(Nc2ccccc2C)c(NC(=O)c2csc3c2CCCC3)c1` [I-340], the IC50 was in the range of 1 to 10 µM.

As to `O=C(Nc1cc(-c2ccc3ncnn3c2)cnc1Nc1cc(F)ccc1Cl)c1cc(F)cc(C(F)(F)F)c1` [I-804], the IC50 is 10 to 100 µM.

With `CNC(=O)c1cnc(Nc2ccccc2C)c(NCc2ccccc2)c1` [I-23], the half-maximal inhibitory concentration (IC50) is 10 to 100 µM.

`CNC(=O)c1cnc(Nc2ccccc2C)c(NC(=O)c2cc(Cl)ccc2OC)c1` [I-12] registered an IC50 of 10 to 100 µM.

The compound `Cc1ccc(C(=O)Nc2cc(-c3cnn(C)c3)cnc2Nc2ccccc2C)cc1` [I-109] returned a concentration for half-maximal inhibition (IC50) of 10 to 100 µM.

Consider `Cc1ccccc1Nc1cc(=O)n(C)cc1NC(=O)c1csc2ccccc12` [I-280], for which the IC50 was 1 to 10 µM.

`CNC(=O)c1cnc(Nc2ccccc2C)c(NS(=O)(=O)c2cn(C)nc2C)c1` [I-55]: the IC50 fell in the range of 10 to 100 µM.

`Cc1ccccc1Nc1ncc(NCC(N)=O)cc1NC(=O)c1cc(F)cc(C(F)(F)F)c1` [I-186] came in with an IC50 of 1 to 10 µM.

Turning to `CNC(=O)c1cnc(Nc2ccccc2C#N)c(NC(=O)c2cc(F)cc(C(F)(F)F)c2)c1` [I-38], the IC50 lay in the range of 10 to 100 µM.

In turn, `CNC(=O)c1cnc(Nc2ccccc2CN)c(NC(=O)c2csc3ccccc23)c1` [I-214] came in with an IC50 of 10 to 100 µM.

In turn, `Cc1ccccc1Nc1ncc(-c2cnn(C)c2)cc1NC(=O)c1cccc2c1cnn2C` [I-100] showed an IC50 of 10 to 100 µM.

As to `CNC(=O)c1cnc(Nc2ccccc2C)c(NC(=O)c2cnn(C)c2C(F)(F)F)c1` [I-385], the half-inhibitory concentration (IC50) is 10 to 100 µM.

As for `Cc1ccc(Nc2ncc(C(=O)NCc3cnn(C)c3)cc2NC(=O)c2csc3ccccc23)cc1` [I-224], the IC50 lay within 10 to 100 µM.

Consider `Cc1ccccc1Nc1ncc(CO)cc1NC(=O)c1cc(F)cc(C(F)(F)F)c1` [I-63], for which the half-maximal inhibitory concentration (IC50) was in the range of 1 to 10 µM.

`Cc1ccccc1N[C@H]1CCN(C(=O)CC2CCOCC2)C[C@@H]1C(=O)Nc1cc(F)cc(C(F)(F)F)c1` (racemic) [I-254] came in with an IC50 of 10 to 100 µM.

`Cc1ccc(NC(=O)c2cnc(Nc3ccccc3C)c(NC(=O)c3cc(F)cc(C(F)(F)F)c3)c2)nc1` [I-263] returned an IC50 of 1 to 10 µM.

`CNC(=O)c1cnc(Nc2ccccc2C)c(NC(=O)c2cc(F)cc3ccccc23)c1` [I-320] yielded an IC50 of 10 to 100 µM.

`Cc1ccccc1Nc1ccncc1NC(=O)c1csc2ccccc12` [I-344] showed an IC50 of 1 to 10 µM.

Compound `Cc1ccccc1Nc1ncc(-c2cnn(C)c2)cc1NC(=O)c1cc2ccccc2n1C` [I-132] showed an IC50 of 1 to 10 µM.

As for `CNC(=O)c1cnc(Nc2ccccc2C)c(NC(=O)c2cccc(C(F)(F)F)n2)c1` [I-376], the IC50 is 10 to 100 µM.

The compound `CNC(=O)c1cnc(Nc2cccnc2C)c(NC(=O)c2cc(F)cc(C(F)(F)F)c2)c1` [I-173] showed an IC50 of 10 to 100 µM.

In turn, `CNC(=O)c1cnc(Nc2ccccc2C)c(NC(=O)c2cc(F)cc(-c3ccccc3)c2)c1` [I-318] registered a half-inhibitory concentration (IC50) of 10 to 100 µM.

Take `CNC(=O)c1cnc(Nc2ccccc2C)c(NC(=O)c2nc3ccccc3n(C)c2=O)c1` [I-368]: the IC50 fell in the range of 10 to 100 µM.

With `CNC(=O)c1cnc(Nc2ccccc2C)c(NC(=O)c2ccnc(C(F)(F)F)c2)c1` [I-366], the IC50 lay in the range of 10 to 100 µM.

`Cc1ccccc1Nc1ncc(-c2cnn(C)c2)cc1NC(=O)c1cccc2cccnc12` [I-125] yielded an IC50 of 10 to 100 µM.

The same test, now with this note: ADP-Glo biochemical PIK3CA kinase assay.
Consider `CCOc1c(F)c(F)cc(C(=O)Nc2cc(C(=O)NC)cnc2Nc2ccccc2C)c1F` [I-512], for which the half-maximal inhibitory concentration (IC50) was in the range of 10 to 100 µM.

Take `Cc1cccc(-n2nc(C)cc2NC(=O)c2cc(F)cc(C(F)(F)F)c2)c1` [I-787]: the IC50 is 10 to 100 µM.

`Cc1ccccc1Nc1ncc(C(=O)N2CCC(C)(O)C2)cc1NC(=O)c1csc2ccccc12` (stereo not drawn) [I-589] came in with an IC50 of 1 to 10 µM.

For the compound `CCc1nccnc1Nc1ncc(C(=O)NC)cc1NC(=O)c1csc2ccccc12` [I-734], the IC50 lay in the range of 1 to 10 µM.

For `CNC(=O)c1cnc(Nc2ccccc2C)c(NC(=O)c2ccc3c(c2)CCN3C)c1` [I-504], the IC50 is 10 to 100 µM.

In turn, `O=C(NC1CC(F)(F)C1)c1cnc(Nc2ccccc2Cl)c(NC(=O)c2csc3ccccc23)c1` [I-641] had an IC50 of 1 to 10 µM.

With `CNC(=O)c1cnc(Nc2ccccc2C)c(NC(=O)Cc2cc3cccnc3cc2F)c1` [I-557], the IC50 was in the range of 1 to 10 µM.

Compound `CNC(=O)c1cnc(Nc2ccccc2C)c(NC(=O)c2cc(C)c(F)c(C)c2)c1` [I-489] yielded an IC50 of 1 to 10 µM.

For the compound `CCOC(=O)[C@H]1CC[C@@H](NC(=O)c2cnc(Nc3ccccc3C)c(NC(=O)c3csc4ccccc34)c2)C1` (racemic) [I-653], the IC50 is 0.5 to 1 µM.

The compound `CNC(=O)c1cnc(Nc2ccccc2C)c(NC(=O)c2cccc3cc(C)[nH]c23)c1` [I-421] registered an IC50 of 1 to 10 µM.

`CNC(=O)c1cnc(Nc2nccc3[nH]ccc23)c(NC(=O)c2csc3ccccc23)c1` [I-729] yielded a half-inhibitory concentration (IC50) of 1 to 10 µM.

For the compound `Cc1ccccc1Nc1ncc(C(=O)N[C@H]2C[C@@H](C(=O)N(C)C)C2)cc1NC(=O)c1csc2ccccc12` [I-694], the IC50 lay within 1 to 10 µM.

In turn, `CNC(=O)c1cnc(Nc2ccccc2C)c(NC(=O)c2cc3c(C)cccc3[nH]2)c1` [I-440] gave an IC50 of 10 to 100 µM.

In the case of `CNC(=O)c1cnc(Nc2ccccc2C)c(NC(=O)c2ccc3cnccc3n2)c1` [I-645], the IC50 fell in the range of 1 to 10 µM.

In the case of `CNC(=O)c1cnc(Nc2ccccc2C)c(NC(=O)c2cccc(Cl)c2C)c1` [I-445], the IC50 was 10 to 100 µM.

The compound `Cc1ccccc1Nc1ncc(C(=O)N[C@H]2CC[C@]3(CCC(=O)N3)CC2)cc1NC(=O)c1csc2ccccc12` [I-617] had a half-maximal inhibitory concentration (IC50) of 1 to 10 µM.

The compound `CNC(=O)c1cnc(Nc2ccccc2C)c(NC(=O)C2CCCCC2(F)F)c1` (stereo not drawn) [I-441] registered an IC50 of 10 to 100 µM.

For `CNC(=O)c1cnc(Nc2ccccc2C)c(NC(=O)c2cccc3c2OC(C)(C)CC3)c1` [I-474], the IC50 lay within 10 to 100 µM.

In the case of `CNC(=O)c1cnc(Nc2ccccc2C)c(NC(=O)Cc2csc3ccccc23)c1` [I-410], the IC50 fell in the range of 10 to 100 µM.

`CNC(=O)c1cnc(Nc2ccccc2C)c(NC(=O)c2ccc(C(F)(F)F)n2C)c1` [I-524] displayed an IC50 of 10 to 100 µM.

On to `O=C(O)c1cnc(N2CCOc3ccccc32)c(NC(=O)c2csc3ccccc23)c1` [I-631], for which the IC50 lay in the range of 1 to 10 µM.

On to `Cc1ccccc1Nc1ncc(C(=O)N2CC(CF)C2)cc1NC(=O)c1csc2ccccc12` [I-628], for which the IC50 is 1 to 10 µM.

`CNC(=O)c1cnc(Nc2cccc3[nH]ccc23)c(NC(=O)c2csc3ccccc23)c1` [I-768] returned an IC50 of 0.5 to 1 µM.

`CNC(=O)c1cnc(Nc2ccccc2C)c(NC(=O)c2cc(Br)cc3ccccc23)c1` [I-461] had an IC50 of 10 to 100 µM.

`CNC(=O)c1cnc(Nc2ccccc2C)c(NC(=O)Cc2cccc(Br)c2F)c1` [I-501] had an IC50 of 10 to 100 µM.

For `Cc1ccccc1Nc1ncc(C(=O)NCC(C)(C)O)cc1NC(=O)c1csc2ccccc12` [I-565], the IC50 was in the range of 1 to 10 µM.

The compound `Cc1ccccc1[C@H]1NC(=O)C[C@@H]1C(=O)Nc1cc(F)cc(C(F)(F)F)c1` (racemic) [I-669] came in with an IC50 of 1 to 10 µM.

Regarding `CNC(=O)c1cnc(Nc2cnccc2C)c(NC(=O)c2csc3ccccc23)c1` [I-730], the IC50 is 1 to 10 µM.

The compound `Nc1ncc(C(=O)O)cc1NC(=O)c1csc2ccccc12` [I-673] gave an IC50 of 1 to 10 µM.

On to `Cc1ccccc1Nc1ncc(C(=O)Nc2c3c(nn2C)CCC3)cc1NC(=O)c1csc2ccccc12` [I-521], for which the IC50 lay in the range of 10 to 100 µM.

Compound `CNC(=O)c1cnc(Nc2ccccc2C)c(NC(=O)c2nc3cccc(C(F)(F)F)n3n2)c1` [I-642] registered an IC50 of 1 to 10 µM.

`CNC(=O)c1cnc(Nc2ccccc2C)c(NC(=O)c2cc(C)c3ccccc3n2)c1` [I-418] registered an IC50 of 10 to 100 µM.

With `Nc1cc(C(=O)O)cnc1N1CCOc2ccccc21` [I-632], the IC50 is 1 to 10 µM.

`Cc1ccccc1Nc1c(NC(=O)c2csc3ccccc23)ccn(C)c1=O` [I-548]: the IC50 lay in the range of 1 to 10 µM.

In turn, `CNC(=O)c1cnc(Nc2ccc3c(c2)N(C)C(=O)CO3)c(NC(=O)c2csc3ccccc23)c1` [I-744] showed an IC50 of 1 to 10 µM.

For `CNC(=O)c1cnc(Nc2ccccc2C)c(NC(=O)c2cc(C)cc3cc[nH]c23)c1` [I-423], the half-maximal inhibitory concentration (IC50) was 1 to 10 µM.

In turn, `CNC(=O)c1cnc(Nc2ccccc2C)c(NC(=O)CCc2ccncc2C)c1` [I-643] registered a half-inhibitory concentration (IC50) of 1 to 10 µM.

Regarding `COCC1CN(C(=O)c2cnc(Nc3ccccc3C)c(NC(=O)c3csc4ccccc34)c2)C1` [I-615], the IC50 lay in the range of 1 to 10 µM.

In the case of `COC1CN(c2ncc(C(=O)N[C@H]3C[C@@H](C(C)=O)C3)cc2NC(=O)c2csc3ccccc23)C1` [I-771], the IC50 is 1 to 10 µM.

For `CNC(=O)c1cnc(Nc2ccccc2C)c(NC(=O)c2ccc(Cl)c(C)c2F)c1` [I-537], the IC50 was in the range of 10 to 100 µM.

The compound `CNC(=O)c1cnc(Nc2ccccc2C)c(NC(=O)c2onc3ccccc23)c1` [I-644] came in with an IC50 of 1 to 10 µM.

As to `CNC(=O)c1cnc(Nc2ccccc2C)c(NC(=O)C2(c3cccc(Br)c3)CC2)c1` [I-503], the IC50 was in the range of 10 to 100 µM.

As to `CNC(=O)c1cnc(Nc2ccccc2C)c(NC(=O)c2cc3c(Cl)cncc3s2)c1` [I-452], the 50% inhibitory concentration (IC50) is 10 to 100 µM.

Source of the values: patent US20250090540A1, “PI3K-ALPHA INHIBITORS AND METHODS OF USE THEREOF” (Relay Therapeutics, Inc., priority 2021, published 2025).
